Results on three compounds are retold here after PMC4769088, “Antifungal Activity and Action Mechanism of Histatin 5-Halocidin Hybrid Peptides against Candida ssp” (PLoS ONE, 2016).

The test system of data set [1] is L929 cells. Description: Cytotoxic activity (WST-1 cell viability assay). The data set is classed as cell-based, mouse. The following applies: 24 h treatment, WST-1, OD 460 nm. On the procedure:
The cytotoxicity of hybrid peptides was evaluated in mouse […] cells (L929, Korean Collection for Type Cultures, KCTC). L929 cells in RPMI1640-10% FBS (100 μL, 3 × 10^5 cells/ml) were seeded in 96-well plates and cultured at 37°C for 24 h in a 5% CO2 incubator. The L929 cells were treated with peptides at predetermined concentrations for 24 h, and 10 μl of EZ-Cytox Cell Viability Assay solution WST-1® (Daeil Lab Service, Korea) were added to each well. Three hours later, the cytotoxicity of peptides against L929 cells was assessed by measuring the optical density at 460 nm using a Perkin Elmer 2030 Reader (Victor X3).
A general note: Formazan colour is commonly taken as a measure of viable cells.

Data set [2] concerns all tested Candida strains. The data set is classed as cell-based. Particulars: 4 h.

Each structure is given as a SMILES string. ≈ marks a conversion by molar mass, not a printed value. Where a SMILES comes first, the peptide text is derived from it. Bridges are numbered along the chain shown (N, C = ends). Roman numbers before positions name the chains, in order.

Consider `CC(C)C[C@H](NC(=O)CNC(=O)[C@H](Cc1c[nH]cn1)NC(=O)[C@H](Cc1c[nH]cn1)NC(=O)[C@H](CC(C)C)NC(=O)[C@H](CC(C)C)NC(=O)[C@H](C)NC(=O)[C@H](CC(N)=O)NC(=O)[C@H](CC(C)C)NC(=O)[C@@H](N)Cc1c[nH]c2ccccc12)C(=O)N[C@@H](CC(N)=O)C(=O)N[C@@H](CSSC[C@H](NC(=O)[C@H](CC(N)=O)NC(=O)[C@H](CC(C)C)NC(=O)CNC(=O)[C@H](Cc1c[nH]cn1)NC(=O)[C@H](Cc1c[nH]cn1)NC(=O)[C@H](CC(C)C)NC(=O)[C@H](CC(C)C)NC(=O)[C@H](C)NC(=O)[C@H](CC(N)=O)NC(=O)[C@H](CC(C)C)NC(=O)[C@@H](N)Cc1c[nH]c2ccccc12)C(=O)N[C@@H](C)C(=O)N[C@@H](CCCCN)C(=O)NCC(=O)N[C@H](C(=O)N[C@@H](CC(C)C)C(=O)N[C@@H](C)C(N)=O)C(C)C)C(=O)N[C@@H](C)C(=O)N[C@@H](CCCCN)C(=O)NCC(=O)N[C@H](C(=O)N[C@@H](CC(C)C)C(=O)N[C@@H](C)C(N)=O)C(C)C` [di-18Hc, reference compound] (I: H-WLNALLHHGLNCAKGVLA-NH2 / II: H-WLNALLHHGLNCAKGVLA-NH2; disulfide I:12-II:12 (inferred); N-terminus assumed), for which, in data set [1], the CC50 worked out at 72.385 µg/mL (≈ 18.8 µM).

On to `CC(C)C[C@H](NC(=O)CNC(=O)[C@H](Cc1c[nH]cn1)NC(=O)[C@H](Cc1c[nH]cn1)NC(=O)[C@H](CCCNC(=N)N)NC(=O)[C@H](CCCCN)NC(=O)[C@H](C)N)C(=O)N[C@@H](CC(N)=O)C(=O)N[C@@H](CSSC[C@H](NC(=O)[C@H](CC(N)=O)NC(=O)[C@H](CC(C)C)NC(=O)CNC(=O)[C@H](Cc1c[nH]cn1)NC(=O)[C@H](Cc1c[nH]cn1)NC(=O)[C@H](CCCNC(=N)N)NC(=O)[C@H](CCCCN)NC(=O)[C@H](C)N)C(=O)N[C@@H](C)C(=O)N[C@@H](CCCCN)C(=O)N[C@@H](Cc1ccccc1)C(=O)N[C@@H](Cc1c[nH]cn1)C(N)=O)C(=O)N[C@@H](C)C(=O)N[C@@H](CCCCN)C(=O)N[C@@H](Cc1ccccc1)C(=O)N[C@@H](Cc1c[nH]cn1)C(N)=O` [di-PH2] (I: H-AKRHHGLNCAKFH-NH2 / II: H-AKRHHGLNCAKFH-NH2; disulfide I:9-II:9 (inferred); N-terminus assumed), for which the MIC values in data set [2] was 1 to 2 µg/mL.

Consider `CC(C)C[C@H](NC(=O)[C@@H](N)Cc1c[nH]c2ccccc12)C(=O)N[C@@H](CC(N)=O)C(=O)N[C@@H](C)C(=O)N[C@@H](CCCCN)C(=O)N[C@@H](CCCNC(=N)N)C(=O)N[C@@H](Cc1c[nH]cn1)C(=O)N[C@@H](Cc1c[nH]cn1)C(=O)NCC(=O)N[C@@H](Cc1ccc(O)cc1)C(=O)N[C@@H](CCCCN)C(=O)N[C@@H](CSSC[C@H](NC(=O)[C@H](CCCCN)NC(=O)[C@H](Cc1ccc(O)cc1)NC(=O)CNC(=O)[C@H](Cc1c[nH]cn1)NC(=O)[C@H](Cc1c[nH]cn1)NC(=O)[C@H](CCCNC(=N)N)NC(=O)[C@H](CCCCN)NC(=O)[C@H](C)NC(=O)[C@H](CC(N)=O)NC(=O)[C@H](CC(C)C)NC(=O)[C@@H](N)Cc1c[nH]c2ccccc12)C(=O)N[C@@H](CCCCN)C(=O)N[C@@H](Cc1ccccc1)C(=O)N[C@@H](Cc1c[nH]cn1)C(N)=O)C(=O)N[C@@H](CCCCN)C(=O)N[C@@H](Cc1ccccc1)C(=O)N[C@@H](Cc1c[nH]cn1)C(N)=O` [di-WP2] (I: H-WLNAKRHHGYKCKFH-NH2 / II: H-WLNAKRHHGYKCKFH-NH2; disulfide I:12-II:12 (inferred); N-terminus assumed), for which the MIC values in data set [2] lay in the range of 2 to 4 µg/mL.

As a reminder, the CC50 is the concentration giving 50% cytotoxicity. A high value points to better tolerance by the cells.
